Holding throughout (type): cell-based
Conditions in all cases: fluorescent calcium assay

Experiment [1] concerns the target T1, TRPML2 (Homo sapiens, UniProt Q8IZK6).
T1 construct: expressed in transfected cells
T1 sequence (Q8IZK6 1-566): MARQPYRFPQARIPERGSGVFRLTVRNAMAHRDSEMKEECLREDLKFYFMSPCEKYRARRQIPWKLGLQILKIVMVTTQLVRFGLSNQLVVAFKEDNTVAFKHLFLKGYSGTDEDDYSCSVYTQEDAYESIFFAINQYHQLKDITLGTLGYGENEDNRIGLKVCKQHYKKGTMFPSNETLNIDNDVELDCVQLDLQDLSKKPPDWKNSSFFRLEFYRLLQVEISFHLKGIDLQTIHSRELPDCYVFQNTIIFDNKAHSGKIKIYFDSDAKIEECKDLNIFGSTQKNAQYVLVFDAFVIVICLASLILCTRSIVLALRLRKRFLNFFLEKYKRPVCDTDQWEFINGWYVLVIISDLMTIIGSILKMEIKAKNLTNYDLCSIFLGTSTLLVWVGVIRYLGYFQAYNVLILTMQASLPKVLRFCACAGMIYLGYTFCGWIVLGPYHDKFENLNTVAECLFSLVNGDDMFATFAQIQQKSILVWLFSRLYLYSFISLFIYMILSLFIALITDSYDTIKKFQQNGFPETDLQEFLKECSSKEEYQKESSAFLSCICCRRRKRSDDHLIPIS
The experiment in a line: Fluorescent TRPML2 assay (performed as for TRPML1, substituting the TRPML2 subtype). In a few lines: (§1)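 Compound series (final 6 nM-20 μM, half-log, triplicate) were added to Fluo4-AM-loaded HEK-293 Trex cells in 10 mM calcium Ringer's, expressing the human TRPML subtype after doxycycline 0.5 ug/mL induction. Percent activity versus positive/negative controls from 480/540 nm fluorescence; EC50 by non-linear regression.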

For experiment [2], the target named is T2, TRPML3 (Homo sapiens, UniProt Q8TDD5).
T2 construct: expressed in transfected cells
T2 sequence (Q8TDD5 1-553): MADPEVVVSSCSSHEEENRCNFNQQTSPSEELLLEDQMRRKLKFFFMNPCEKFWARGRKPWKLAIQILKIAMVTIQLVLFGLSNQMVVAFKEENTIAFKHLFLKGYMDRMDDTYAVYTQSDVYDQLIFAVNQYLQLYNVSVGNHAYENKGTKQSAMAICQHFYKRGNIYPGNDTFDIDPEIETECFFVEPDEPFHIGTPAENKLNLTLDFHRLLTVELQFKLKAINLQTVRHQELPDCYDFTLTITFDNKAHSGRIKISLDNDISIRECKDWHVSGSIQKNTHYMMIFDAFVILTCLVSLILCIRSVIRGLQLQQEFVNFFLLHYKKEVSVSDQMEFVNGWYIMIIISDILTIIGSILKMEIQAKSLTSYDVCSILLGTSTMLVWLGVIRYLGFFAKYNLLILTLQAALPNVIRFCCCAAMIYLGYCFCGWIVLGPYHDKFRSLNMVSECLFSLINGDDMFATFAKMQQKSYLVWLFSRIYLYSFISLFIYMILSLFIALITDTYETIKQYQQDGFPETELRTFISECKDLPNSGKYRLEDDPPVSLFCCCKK
Briefly: Fluorescent TRPML3 assay (performed as for TRPML1, substituting the TRPML3 subtype). In a few lines:
as §1

For experiment [3], the target named is TRPML1 (Homo sapiens, UniProt Q9GZU1). Briefly: Fluorescent TRPML1 assay (Fluo4-AM calcium fluorescence in doxycycline-induced HEK-293 Trex cells). Summed up: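 hTRPML1 (mutated for cell-surface expression) in HEK-293 Trex, dox 0.5 ug/mL o/n; Fluo4-AM 1 uM ~60 min, then ~60 min de-esterification, dark; modified Ringer's + 10 mM Ca. Cmpds 20 uM–6 nM final, half-log, n=3. Ex480/Em540; % activity vs ctrls; EC50 by nonlinear regression.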

SMILES strings stand for the structures. pEC50: −log10 of the molar value.

Chain of TRPML1 (Q9GZU1 whole entry L15A/L16A/L577A/L578A, form open): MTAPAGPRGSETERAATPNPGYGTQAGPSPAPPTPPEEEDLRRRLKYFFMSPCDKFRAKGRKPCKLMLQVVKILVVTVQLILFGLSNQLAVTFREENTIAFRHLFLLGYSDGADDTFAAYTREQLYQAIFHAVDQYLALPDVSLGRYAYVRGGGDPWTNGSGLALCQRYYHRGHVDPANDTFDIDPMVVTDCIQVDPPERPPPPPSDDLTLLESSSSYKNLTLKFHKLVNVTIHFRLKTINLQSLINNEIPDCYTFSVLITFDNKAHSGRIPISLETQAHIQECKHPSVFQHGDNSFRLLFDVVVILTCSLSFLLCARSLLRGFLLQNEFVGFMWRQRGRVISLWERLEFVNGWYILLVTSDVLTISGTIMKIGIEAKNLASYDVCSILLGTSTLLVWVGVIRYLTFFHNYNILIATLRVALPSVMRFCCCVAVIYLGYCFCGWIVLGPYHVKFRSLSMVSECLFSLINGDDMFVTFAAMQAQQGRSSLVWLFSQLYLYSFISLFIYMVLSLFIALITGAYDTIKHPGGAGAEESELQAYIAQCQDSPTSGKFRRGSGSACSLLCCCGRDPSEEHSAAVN

Usually pEC50 stands for −log10 of the EC50, conventionally taken in molar units. With `C[C@@H]1CN(c2ncnc3c2c(-c2ccccc2F)cn3-c2cnn(C)c2)[C@@H](C)CN1C(=O)OC(C)(C)C(F)(F)F` [Compound 186, 1,1,1-trifluoro-2-methylpropan-2-yl (2R,5S)-4-(5-(2-fluorophenyl)-7-(1-methyl-1H-pyrazol-4-yl)-7H-pyrrolo[2,3-d]pyrimidin-4-yl)-2,5-dimethylpiperazine-1-carboxylate], the pEC50 was 6.30 to 7.00 in experiment [1], above 7.00 in experiment [2] and above 7.00 in experiment [3].
As to `CC1CN(C(=O)OC(C)(C)C)CCN1c1nccc2c1c(-c1ccccn1)cn2-c1cccc(Cl)c1` (stereo not drawn) [Compound 187, tert-butyl 4-(1-(3-chlorophenyl)-3-(pyridin-2-yl)-1H-pyrrolo[3,2-c]pyridin-4-yl)-3-methylpiperazine-1-carboxylate], the pEC50 in experiment [1], in experiment [2] and in experiment [3] was 6.30 to 7.00 in each case.
As for `C[C@H]1CN(c2ncnc3c2c(C2CC2)cn3-c2cc(F)cc(F)c2)CCN1C(=O)OC(C)(C)C` [Compound 188, tert-Butyl (S)-4-(5-cyclopropyl-7-(3,5-difluorophenyl)-7H-pyrrolo[2,3-d]pyrimidin-4-yl)-2-methylpiperazine-1-carboxylate], the pEC50 in experiment [1] is 5.70 to 6.30; in experiment [2], 6.30 to 7.00; in experiment [3], 6.30 to 7.00.
`CC1CN(C(=O)OC(C)(C)C)CCN1c1nccc2c1c(-c1cnccn1)cn2-c1cccc(Cl)c1` (stereo not drawn) [Compound 190, tert-Butyl 4-(1-(3-chlorophenyl)-3-(pyrazin-2-yl)-1H-pyrrolo[3,2-c]pyridin-4-yl)-3-methylpiperazine-1-carboxylate]: the pEC50 in experiment [1] was 5.70 to 6.30; in experiment [2], 6.30 to 7.00; in experiment [3], 5.70 to 6.30.
Regarding `C[C@H]1CN(C(=O)OC(C)(C)CF)CCN1c1ncnc2c1c(-c1ccccc1)cn2-c1cnn(C)c1` [Compound 191, 1-fluoro-2-methylpropan-2-yl (S)-3-methyl-4-(7-(1-methyl-1H-pyrazol-4-yl)-5-phenyl-7H-pyrrolo[2,3-d]pyrimidin-4-yl)piperazine-1-carboxylate], the pEC50 was 5.70 to 6.30 in experiment [1], 6.30 to 7.00 in experiment [2] and 6.30 to 7.00 in experiment [3].
Take `C[C@@H]1CN(c2ncnc3c2c(-c2ccccc2F)cn3-c2ccccn2)CCN1C(=O)OC(C)(C)C` [Compound 192, tert-butyl (R)-4-(5-(2-fluorophenyl)-7-(pyridin-2-yl)-7H-pyrrolo[2,3-d]pyrimidin-4-yl)-2-methylpiperazine-1-carboxylate]: the results for the pEC50 in experiment [1], in experiment [2] and in experiment [3] were 6.30 to 7.00, above 7.00 and above 7.00, respectively.
For the compound `C[C@@H]1CN(c2ncnc3c2c(N2CCCC2)cn3-c2cccc(Cl)c2)CCN1C(=O)OC(C)(C)C` [Compound 193, tert-butyl (R)-4-(7-(3-chlorophenyl)-5-(pyrrolidin-1-yl)-7H-pyrrolo[2,3-d]pyrimidin-4-yl)-2-methylpiperazine-1-carboxylate], the pEC50 in experiment [1] is 6.30 to 7.00; in experiment [2], above 7.00; in experiment [3] it was above 7.00.
With `C[C@H]1CN(c2ncnc3c2c(N2CCCC2)cn3-c2cccc(Cl)c2)CCN1C(=O)OC(C)(C)C` [Compound 194, tert-Butyl (S)-4-(7-(3-chlorophenyl)-5-(pyrrolidin-1-yl)-7H-pyrrolo[2,3-d]pyrimidin-4-yl)-2-methylpiperazine-1-carboxylate], the pEC50 in experiment [1], in experiment [2] and in experiment [3] was 6.30 to 7.00 in each case.
With `C[C@@H]1CN(C(=O)OC(C)(C)C)CCN1c1ncnc2c1c(C1CC1)cn2-c1cccc(OC(F)(F)F)c1` [Compound 195, tert-butyl (R)-4-(5-cyclopropyl-7-(3-(trifluoromethoxy)phenyl)-7H-pyrrolo[2,3-d]pyrimidin-4-yl)-3-methylpiperazine-1-carboxylate], the pEC50 in experiment [1] is 6.30 to 7.00; in experiment [2] it was above 7.00; in experiment [3], 6.30 to 7.00.
For `C[C@H]1CN(C(=O)OC(C)(C)C)CCN1c1ncnc2c1c(C1CC1)cn2-c1cccc(OC(F)(F)F)c1` [Compound 196, tert-butyl (S)-4-(5-cyclopropyl-7-(3-(trifluoromethoxy)phenyl)-7H-pyrrolo[2,3-d]pyrimidin-4-yl)-3-methylpiperazine-1-carboxylate], the pEC50 in experiment [1] is 6.30 to 7.00; in experiment [2] it was above 7.00; in experiment [3] it was above 7.00.
Regarding `C[C@@H]1CN(C(=O)OC(C)(C)C)CCN1c1ncnc2c1c(C1CC1)cn2-c1cccc(OC(F)F)c1` [Compound 197, tert-butyl (R)-4-(5-cyclopropyl-7-(3-(difluoromethoxy)phenyl)-7H-pyrrolo[2,3-d]pyrimidin-4-yl)-3-methylpiperazine-1-carboxylate], the pEC50 in experiment [1], in experiment [2] and in experiment [3] was 6.30 to 7.00 throughout.
As for `C[C@H]1CN(C(=O)OC(C)(C)C)CCN1c1ncnc2c1c(C1CC1)cn2-c1cccc(OC(F)F)c1` [Compound 198, tert-butyl (S)-4-(5-cyclopropyl-7-(3-(difluoromethoxy)phenyl)-7H-pyrrolo[2,3-d]pyrimidin-4-yl)-3-methylpiperazine-1-carboxylate], the pEC50 is 6.30 to 7.00 in experiment [1], above 7.00 in experiment [2] and above 7.00 in experiment [3].
For the compound `C[C@@H]1CN(C(=O)OC(C)(C)C)CCN1c1ncnc2c1c(C1CC1)cn2-c1cccc(C#N)c1` [Compound 199, tert-butyl (R)-4-(7-(3-cyanophenyl)-5-cyclopropyl-7H-pyrrolo[2,3-d]pyrimidin-4-yl)-3-methylpiperazine-1-carboxylate], the pEC50 in experiment [1], in experiment [2] and in experiment [3] was 6.30 to 7.00 each time.
Consider `C[C@H]1CN(C(=O)OC(C)(C)C)CCN1c1ncnc2c1c(C1CC1)cn2-c1cccc(C#N)c1` [Compound 200, tert-butyl (S)-4-(7-(3-cyanophenyl)-5-cyclopropyl-7H-pyrrolo[2,3-d]pyrimidin-4-yl)-3-methylpiperazine-1-carboxylate], for which the negative logarithm of the EC50 (pEC50) in experiment [1] is 6.30 to 7.00; in experiment [2], above 7.00; in experiment [3], above 7.00.
With `COc1cccc(-n2cc(C3CC3)c3c(N4CCN(C(=O)OC(C)(C)C)C[C@H]4C)ncnc32)c1` [Compound 201, tert-butyl (R)-4-(5-cyclopropyl-7-(3-methoxyphenyl)-7H-pyrrolo[2,3-d]pyrimidin-4-yl)-3-methylpiperazine-1-carboxylate], the pEC50 was 5.70 to 6.30 in experiment [1], 6.30 to 7.00 in experiment [2] and 6.30 to 7.00 in experiment [3].
With `COc1cccc(-n2cc(C3CC3)c3c(N4CCN(C(=O)OC(C)(C)C)C[C@@H]4C)ncnc32)c1` [Compound 202, tert-butyl (S)-4-(5-cyclopropyl-7-(3-methoxyphenyl)-7H-pyrrolo[2,3-d]pyrimidin-4-yl)-3-methylpiperazine-1-carboxylate], the values for the pEC50 in experiment [1], in experiment [2] and in experiment [3] were 5.70 to 6.30, 6.30 to 7.00 and 6.30 to 7.00, respectively.
Turning to `C[C@H]1CN(C(=O)OC(C)(C)C)CCN1c1ncnc2c1c(C1CC1)cn2-c1cc(F)cc(F)c1` [Compound 203, tert-butyl (S)-4-(5-cyclopropyl-7-(3,5-difluorophenyl)-7H-pyrrolo[2,3-d]pyrimidin-4-yl)-3-methylpiperazine-1-carboxylate], the pEC50 in experiment [1] is 6.30 to 7.00; in experiment [2], above 7.00; in experiment [3], above 7.00.
`C[C@@H]1CN(c2ncnc3c2c(C2CC2)cn3-c2cc(F)c(F)c(F)c2)CCN1C(=O)OC(C)(C)C` [Compound 204, tert-butyl (R)-4-(5-cyclopropyl-7-(3,4,5-trifluorophenyl)-7H-pyrrolo[2,3-d]pyrimidin-4-yl)-2-methylpiperazine-1-carboxylate]: the pEC50 in experiment [1] was 6.30 to 7.00; in experiment [2] it was above 7.00; in experiment [3], above 7.00.
